Source: patent US20050074879A1, “Antisense oligonucleotide modulation of STAT3 expression” (priority 2000, published 2005)
Oligonucleotides are written 5' to 3', each unit as a sugar letter and its base; * is a phosphorothioate linkage, no mark a phosphodiester; rarer units and linkages stand in square brackets, end groups in braces. Plain capitals give the bases only. e = 2'-O-(2-methoxyethyl) (MOE); [5mC] = 5-methylcytosine; d = 2'-deoxy (DNA)

tested on: Human STAT3 mRNA; test: Inhibition of human STAT3 mRNA levels in A549 cells, 75 nM, real-time PCR (Table 13); type: cell-based; details: 75 nM oligonucleotide with LIPOFECTIN, real-time PCR PPS 199, percent inhibition relative to untreated control cells, average of 2 experiments
Experimental: Oligonucleotide activity is assayed by quantitation of STAT3 mRNA levels by real-time PCR (RT-PCR) using the ABI PRISMS 7700 Sequence Detection System (PE-Applied Biosystems, Foster City, Calif.) according to manufacturer's instructions. This is a closed-tube, non-gel-based, fluorescence detection system which allows high-throughput quantitation of polymerase chain reaction (PCR) products in real-time. As opposed to standard PCR, in which amplification products are quantitated after the PCR is completed, products in RT-PCR are quantitated as they accumulate. This is accomplished by including in the PCR reaction an oligonucleotide probe that anneals specifically between the forward and reverse PCR primers, and contains two fluorescent dyes. A reporter dye (e.g., JOE or FAM, PE-Applied Biosystems, Foster City, Calif.) is attached to the 5′ end of the probe and a quencher dye (e.g., TAMRA, PE-Applied Biosystems, Foster City, Calif.) is attached to the 3′ end of the probe. When the probe and dyes are intact, reporter dye emission is quenched by the proximity of the 3′ quencher dye. During amplification, annealing of the probe to the target sequence creates a substrate that can be cleaved by the 5′-exonuclease activity of Taq polymerase. […] With each cycle, additional reporter dye molecules are cleaved from their respective probes, and the fluorescence intensity is monitored at regular (six-second) intervals by laser optics built into the ABI PRISM™ 7700 Sequence Detection System. In each assay, a series of parallel reactions containing serial dilutions of mRNA from untreated control samples generates a standard curve that is used to quantitate the percent inhibition after antisense oligonucleotide treatment of test samples.
RT-PCR reagents are obtained from PE-Applied Biosystems, Foster City, Calif. RT-PCR reactions are carried out by adding 25 l PCR cocktail (1× TAQMAN7 buffer A, 5.5 mM MgCl2, 300 µM each of DATP, dCTP and dGTP, 600 µM of dUTP, 100 nM each of forward primer, reverse primer, and probe, 20 U RNAse inhibitor, 1.25 units AMPLITAQ GOLD7, and 12.5 U MuLV reverse transcriptase) to 96 well plates containing 25 l poly(A) mRNA solution. The RT reaction is carried out by incubation for 30 minutes at 48° C. following a 10 minute incubation at 95° C. to activate the AMPLITAQ GOLD7, 40 cycles of a two-step PCR protocol are carried out: 95° C. for 15 seconds (denaturation) followed by 60° C. for 1.5 minutes (annealing/extension).
The compounds were analyzed for their effect on STAT3 mRNA levels in A549 cells. The human lung carcinoma cell line A549 was obtained from the American Type Culture Collection (ATCC) (Manassas, Va.). A549 cells were routinely cultured in DMEM basal media (Invitrogen Corporation, Carlsbad, Calif.) supplemented with 10% fetal calf serum (Invitrogen Corporation, Carlsbad, Calif.), 100 units/mL penicillin, and 100 ug/mL streptomycin (Invitrogen Corporation, Carlsbad, Calif.). Cells were routinely passaged by trypsinization and dilution when they reached 90% confluence.
When cells reached 65-75% confluency, they were treated with oligonucleotide. For cells grown in 96-well plates, wells were washed once with […] OPTI-MEM-1 reduced-serum medium (Invitrogen Corporation, Carlsbad, Calif.) and then treated with 130 µL of OPTI-MEM-1 containing […] LIPOFECTIN (Invitrogen Corporation, Carlsbad, Calif.) and 75 nM of the compounds in Table 13. Cells were treated and data were obtained in duplicate. Untreated cells served as controls. After 4-7 hours of treatment at 37° C., the medium was replaced with fresh medium. Cells were harvested 16-24 hours after oligonucleotide treatment. STAT3 mRNA levels in A549 cells were quantitated by real-time PCR as described by other methods herein.
Probes and primers to human STAT3 were designed to hybridize to a human STAT3 sequence, using published sequence information (incorporated herein as SEQ ID NO: 1). For STAT 3 the PCR primers were: • forward primer: […]

First: 337339 (antisense eA*eG*e[5mC]*eA*eA*dA*dT*dG*dA*d[5mC]*dA*dT*dG*dT*dT*eG*eT*eT*e[5mC]*eA) [compound 337339]
Second: 337320 (antisense e[5mC]*eT*eG*eG*e[5mC]*dA*dA*dG*dG*dA*dG*dT*dG*dG*dG*eT*e[5mC]*eT*e[5mC]*eT) [compound 337320]
The “% Inhib (inhibition of human STAT 3 mRNA levels)” value (shortened to “% Inhib”) of the first is higher: 84% for the first, 74% for the second.

Going from “337350 (antisense eG*eA*e[5mC]*eA*eA*dT*dA*d[5mC]*dT*dT*dT*d[5mC]*d[5mC]*dG*dA*eA*eT*eG*e[5mC]*e[5mC]) [compound 337350]” to “337356 (antisense eA*eT*eG*eG*eT*dA*dT*dT*dG*d[5mC]*dT*dG*d[5mC]*dA*dG*eG*eT*e[5mC]*eG*eT) [compound 337356]”, the “% Inhib” value falls from 84% to 75%.

Going from “337296 (antisense e[5mC]*e[5mC]*eA*eG*eT*dT*dT*dT*d[5mC]*dT*dA*dG*d[5mC]*d[5mC]*dG*eA*eT*e[5mC]*eT*eA) [compound 337296]” to “337295 (antisense eT*eG*e[5mC]*e[5mC]*eG*d[5mC]*d[5mC]*dT*d[5mC]*dT*dT*d[5mC]*d[5mC]*dA*dG*eT*e[5mC]*eA*eG*e[5mC]) [compound 337295]”, the “% Inhib” value rises from 80% to 82%.

Compared with “337279 (antisense eG*eT*eT*eG*eA*dA*dA*dT*d[5mC]*dA*dA*dA*dG*dT*d[5mC]*eA*eT*e[5mC]*e[5mC]*eT) [compound 337279]”, “337250 (antisense eA*eT*eT*e[5mC]*eA*d[5mC]*dT*dT*dG*d[5mC]*d[5mC]*dT*d[5mC]*d[5mC]*dT*eT*eG*eA*e[5mC]*eT) [compound 337250]” is lower in “% Inhib” value: 78% for the first, 51% for the second.

“337310 (antisense eA*eA*eG*eT*eG*dT*dT*dT*dG*dA*dA*dT*dT*d[5mC]*dT*eG*e[5mC]*eA*eG*eA) [compound 337310]” and “337273 (antisense e[5mC]*e[5mC]*eA*eG*e[5mC]*dA*dT*d[5mC]*dT*dG*d[5mC]*dT*dG*d[5mC]*dT*eT*e[5mC]*eT*e[5mC]*e[5mC]) [compound 337273]” are the same in “% Inhib” value: 73% for the first, 73% for the second.

First: 337361 (antisense e[5mC]*eA*eA*eA*e[5mC]*dT*dG*d[5mC]*dA*dT*d[5mC]*dA*dA*dT*dG*eA*eA*eT*e[5mC]*eT) [compound 337361]
Second: 337301 (antisense eA*eG*eG*e[5mC]*eA*d[5mC]*dT*dT*dT*dT*d[5mC]*dA*dT*dT*dA*eA*eG*eT*eT*eT) [compound 337301]
The “% Inhib” value of the first is lower: 61% for the first, 73% for the second.

Going from “337359 (antisense e[5mC]*eA*eA*eT*eG*dA*dA*dT*d[5mC]*dT*dA*dA*dA*dG*dT*eG*e[5mC]*eG*eG*eG) [compound 337359]” to “337330 (antisense eG*e[5mC]*e[5mC]*eA*eT*dG*dT*dT*dT*dT*d[5mC]*dT*dT*dT*dG*e[5mC]*eA*eA*eA*eA) [compound 337330]”, the “% Inhib” value rises from 57% to 59%.

First: 337319 (antisense eA*eA*eG*eG*eA*dG*dT*dG*dG*dG*dT*d[5mC]*dT*d[5mC]*dT*eA*eG*eG*eT*e[5mC]) [compound 337319]
Second: 337360 (antisense eT*eG*e[5mC]*eA*eT*d[5mC]*dA*dA*dT*dG*dA*dA*dT*d[5mC]*dT*eA*eA*eA*eG*eT) [compound 337360]
The “% Inhib” value of the first is lower: 38% for the first, 71% for the second.

Compared with “337287 (antisense eT*eG*eG*eT*eT*dG*dT*dT*dT*d[5mC]*d[5mC]*dA*dT*dT*d[5mC]*eA*eG*eA*eT*e[5mC]) [compound 337287]”, “337380 (antisense eG*e[5mC]*eA*eA*eT*dG*d[5mC]*d[5mC]*dA*dG*dG*dA*dG*dT*dA*eT*eG*eT*eA*eG) [compound 337380]” is higher in “% Inhib” value: 82% for the first, 83% for the second.

First: 337378 (antisense eA*eG*eG*eT*eG*dG*d[5mC]*d[5mC]*dT*dG*dT*dG*dG*d[5mC]*dA*eT*eT*eT*eG*e[5mC]) [compound 337378]
Second: 337265 (antisense e[5mC]*eG*eA*e[5mC]*eT*d[5mC]*dT*dT*dG*d[5mC]*dA*dG*dG*dA*dA*eG*e[5mC]*eG*eG*e[5mC]) [compound 337265]
The “% Inhib” value of the first is lower: 16% for the first, 92% for the second.

Going from “337305 (antisense e[5mC]*eT*eT*eT*eA*dA*dT*dT*dT*dT*dA*dA*dG*d[5mC]*dT*eG*eA*eT*eA*eA) [compound 337305]” to “337371 (antisense eG*eA*eA*e[5mC]*eA*d[5mC]*dA*dT*d[5mC]*d[5mC]*dT*dT*dA*dT*dT*eT*eG*e[5mC]*eA*eT) [compound 337371]”, the “% Inhib” value rises from 25% to 76%.

First: 337376 (antisense eG*e[5mC]*eA*eG*eG*d[5mC]*dA*d[5mC]*d[5mC]*dA*dG*dG*dA*dG*dG*e[5mC]*eA*e[5mC]*eT*eT) [compound 337376]
Second: 337335 (antisense eT*e[5mC]*e[5mC]*eA*eG*d[5mC]*d[5mC]*dA*dG*dA*d[5mC]*d[5mC]*d[5mC]*dA*dG*eA*eA*eG*eG*eA) [compound 337335]
The “% Inhib” value of the first is lower: 83% for the first, 86% for the second.

Going from “337351 (antisense e[5mC]*eT*eA*e[5mC]*e[5mC]*dT*dG*dG*dG*dT*d[5mC]*dA*dG*d[5mC]*dT*eT*e[5mC]*eA*eG*eG) [compound 337351]” to “337358 (antisense eG*eA*e[5mC]*eA*eT*d[5mC]*dG*dG*d[5mC]*dA*dG*dG*dT*d[5mC]*dA*eA*eT*eG*eG*eT) [compound 337358]”, the “% Inhib” value rises from 74% to 77%.

Going from “337289 (antisense eT*e[5mC]*e[5mC]*eA*eG*d[5mC]*dT*dG*d[5mC]*dT*dG*d[5mC]*dA*dT*d[5mC]*eT*eT*e[5mC]*eT*eG) [compound 337289]” to “337352 (antisense eA*eT*eA*eA*eA*d[5mC]*dT*dT*dG*dG*dT*d[5mC]*dT*dT*d[5mC]*eA*eG*eG*eT*eA) [compound 337352]”, the “% Inhib” value falls from 83% to 80%.

First: 337266 (antisense eT*e[5mC]*eG*eT*eA*dG*dA*dT*dT*dG*dT*dG*d[5mC]*dT*dG*eA*eT*eA*eG*eA) [compound 337266]
Second: 337372 (antisense eA*eT*e[5mC]*eA*eT*dG*dG*dG*dT*d[5mC]*dT*d[5mC]*dA*dG*dA*eG*eA*eA*e[5mC]*eA) [compound 337372]
The “% Inhib” value of the first is lower: 61% for the first, 88% for the second.

Going from “337253 (antisense eA*eA*eA*eT*eG*d[5mC]*dG*dG*dA*d[5mC]*d[5mC]*d[5mC]*dA*dA*dG*eA*eG*eT*eT*eT) [compound 337253]” to “337349 (antisense eT*eA*e[5mC]*eT*eT*dT*d[5mC]*d[5mC]*dG*dA*dA*dT*dG*d[5mC]*d[5mC]*eT*e[5mC]*e[5mC]*eT*e[5mC]) [compound 337349]”, the “% Inhib” value rises from 49% to 65%.

Compared with “337375 (antisense eA*e[5mC]*e[5mC]*eA*eG*dG*dA*dG*dG*d[5mC]*dA*d[5mC]*dT*dT*dG*eT*e[5mC]*eT*eA*eA) [compound 337375]”, “337299 (antisense eT*e[5mC]*eT*eG*eA*dA*dG*dT*dT*dG*dA*dG*dA*dT*dT*e[5mC]*eT*eG*e[5mC]*eT) [compound 337299]” is lower in “% Inhib” value: 89% for the first, 80% for the second.
